Experimental data as given in ChEMBL document CHEMBL1148572, “1-((S)-2-aminopropyl)-1H-indazol-6-ol: a potent peripherally acting 5-HT2 receptor agonist with ocular hypotensive activity” (J Med Chem, 2006).

Experiments:
[1] = target: T1, 5-hydroxytryptamine receptor 2C (Rattus norvegicus) (UniProt P08909); assay: Activity against recombinant rat 5HT2C mediated intracellular calcium mobilization by FLIPR in SR3T3 cells
T1 sequence (whole entry): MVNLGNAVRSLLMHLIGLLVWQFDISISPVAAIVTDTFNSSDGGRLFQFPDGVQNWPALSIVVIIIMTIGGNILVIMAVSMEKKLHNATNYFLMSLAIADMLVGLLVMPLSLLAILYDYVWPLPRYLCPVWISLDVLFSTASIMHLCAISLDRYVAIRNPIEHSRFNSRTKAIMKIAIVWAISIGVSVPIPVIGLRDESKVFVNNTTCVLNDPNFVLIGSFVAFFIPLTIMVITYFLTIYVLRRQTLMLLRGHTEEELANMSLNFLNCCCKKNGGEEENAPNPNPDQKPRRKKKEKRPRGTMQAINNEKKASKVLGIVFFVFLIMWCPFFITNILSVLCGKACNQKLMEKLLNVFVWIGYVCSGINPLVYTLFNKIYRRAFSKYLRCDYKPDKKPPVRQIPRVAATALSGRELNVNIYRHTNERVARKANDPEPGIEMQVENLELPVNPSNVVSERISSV

[2] = target: T2, 5-hydroxytryptamine receptor 2A (Rattus norvegicus, UniProt P14842); assay: (§1) Activity against 5HT2A mediated intracellular calcium mobilization by FLIPR in rat vascular smooth muscle cells; format: functional, cell-based
T2 sequence (P14842 whole entry): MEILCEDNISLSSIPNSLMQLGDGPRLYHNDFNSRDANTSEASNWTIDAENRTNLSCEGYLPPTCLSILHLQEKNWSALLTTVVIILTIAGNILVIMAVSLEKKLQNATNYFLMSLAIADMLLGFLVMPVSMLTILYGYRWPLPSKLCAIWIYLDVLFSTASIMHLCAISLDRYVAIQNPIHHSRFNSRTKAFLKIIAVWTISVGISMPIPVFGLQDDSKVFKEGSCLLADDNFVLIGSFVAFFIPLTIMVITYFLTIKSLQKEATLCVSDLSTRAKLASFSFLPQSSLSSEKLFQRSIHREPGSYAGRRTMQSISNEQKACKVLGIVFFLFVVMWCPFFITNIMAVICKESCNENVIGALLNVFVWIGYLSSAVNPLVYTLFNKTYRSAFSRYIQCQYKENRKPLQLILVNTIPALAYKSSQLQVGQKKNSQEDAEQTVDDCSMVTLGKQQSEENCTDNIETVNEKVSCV

[3] = target: 5-hydroxytryptamine receptor 2A (Rattus norvegicus) (UniProt P14842); assay: as §1; format: functional, cell-based
5-hydroxytryptamine receptor 2A (Rattus norvegicus), sequence (P14842 whole entry): as above

[4] = target: T2, 5-hydroxytryptamine receptor 2A; format: tissue-based, Cerebral cortex
[5] = target: 5-hydroxytryptamine receptor 2B (Rattus norvegicus, UniProt P30994); assay: Activity against 5HT2B receptor in longitudinal stomach fundus strips in wistar rats
5-hydroxytryptamine receptor 2B (Rattus norvegicus, UniProt P30994), sequence (P30994 whole entry): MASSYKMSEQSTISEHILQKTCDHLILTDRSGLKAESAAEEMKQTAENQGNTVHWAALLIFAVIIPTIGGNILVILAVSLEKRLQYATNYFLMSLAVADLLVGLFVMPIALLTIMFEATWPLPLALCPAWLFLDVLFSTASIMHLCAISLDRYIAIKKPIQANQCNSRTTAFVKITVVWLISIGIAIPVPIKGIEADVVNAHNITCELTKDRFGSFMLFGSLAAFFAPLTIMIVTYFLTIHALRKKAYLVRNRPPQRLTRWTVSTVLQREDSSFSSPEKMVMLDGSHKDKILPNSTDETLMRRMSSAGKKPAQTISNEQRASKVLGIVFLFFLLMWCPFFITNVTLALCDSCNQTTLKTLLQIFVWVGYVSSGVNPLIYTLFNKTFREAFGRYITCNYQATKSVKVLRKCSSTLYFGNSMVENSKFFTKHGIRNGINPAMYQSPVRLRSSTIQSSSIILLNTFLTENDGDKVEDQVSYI

[6] = target: T3, 5-hydroxytryptamine receptor 2C (Rattus norvegicus, UniProt P08909); assay: Activity against recombinant rat 5HT2C mediated intracellular calcium mobilization by FLIPR in SR3T3 cells
T3 sequence (P08909 whole entry): T1 sequence (whole entry)

[7] = Half life in phosphate buffer at pH 7.4 in 45 degC; format: ADME
[8] = test system: MDR1 (P-gp); assay: Permeability from basolateral to apical side of the MDCK cell transfected with human MDR1; format: ADME, cell-based
[9] = test system: MDR1 (P-gp); assay: Permeability from apical to basolateral side of the MDCK cell transfected with human MDR1; format: ADME, cell-based
[10] = Distribution coefficient at pH 7.4; format: physicochemical; conditions: octanol/water
[11] = target: 5-hydroxytryptamine receptor 2A (Homo sapiens, UniProt P28223); format: cell-based, CHO
5-hydroxytryptamine receptor 2A (Homo sapiens, UniProt P28223), sequence (P28223 whole entry): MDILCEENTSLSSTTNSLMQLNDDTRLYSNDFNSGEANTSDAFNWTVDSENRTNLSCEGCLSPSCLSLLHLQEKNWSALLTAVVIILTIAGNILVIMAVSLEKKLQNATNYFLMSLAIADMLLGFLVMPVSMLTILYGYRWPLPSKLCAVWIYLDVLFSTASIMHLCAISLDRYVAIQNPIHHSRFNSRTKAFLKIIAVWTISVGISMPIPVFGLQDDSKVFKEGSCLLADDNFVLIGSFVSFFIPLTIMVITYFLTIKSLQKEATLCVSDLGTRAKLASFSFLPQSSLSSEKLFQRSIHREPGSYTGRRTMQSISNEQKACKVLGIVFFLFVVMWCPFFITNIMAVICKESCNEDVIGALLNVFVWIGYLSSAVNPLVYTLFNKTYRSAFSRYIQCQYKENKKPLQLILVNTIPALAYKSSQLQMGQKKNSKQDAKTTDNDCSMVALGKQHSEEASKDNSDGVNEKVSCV

[12] = target: T4, 5-hydroxytryptamine receptor 2C (Homo sapiens, UniProt P28335); assay: biochemical
T4 sequence (P28335 whole entry): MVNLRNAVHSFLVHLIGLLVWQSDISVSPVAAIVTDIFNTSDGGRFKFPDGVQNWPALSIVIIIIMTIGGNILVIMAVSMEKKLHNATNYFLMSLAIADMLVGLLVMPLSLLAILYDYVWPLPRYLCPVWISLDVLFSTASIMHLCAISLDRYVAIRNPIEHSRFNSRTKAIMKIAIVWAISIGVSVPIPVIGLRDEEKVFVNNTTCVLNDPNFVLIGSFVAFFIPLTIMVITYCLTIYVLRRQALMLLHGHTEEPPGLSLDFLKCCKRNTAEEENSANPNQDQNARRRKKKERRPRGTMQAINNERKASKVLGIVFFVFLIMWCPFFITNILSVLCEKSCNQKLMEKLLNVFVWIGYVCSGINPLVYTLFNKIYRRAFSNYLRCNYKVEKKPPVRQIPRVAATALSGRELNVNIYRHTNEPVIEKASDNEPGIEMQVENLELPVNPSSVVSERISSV
Description: Displacement of [125I]DOI from cloned human 5HT2C receptor expressed in CHO cells

[13] = Half life in phosphate buffer at pH 7.4 in 25 degC; format: ADME
[14] = target: 5-hydroxytryptamine receptor 2B (Homo sapiens, UniProt P41595); assay: biochemical
5-hydroxytryptamine receptor 2B (Homo sapiens, UniProt P41595), sequence (P41595 whole entry): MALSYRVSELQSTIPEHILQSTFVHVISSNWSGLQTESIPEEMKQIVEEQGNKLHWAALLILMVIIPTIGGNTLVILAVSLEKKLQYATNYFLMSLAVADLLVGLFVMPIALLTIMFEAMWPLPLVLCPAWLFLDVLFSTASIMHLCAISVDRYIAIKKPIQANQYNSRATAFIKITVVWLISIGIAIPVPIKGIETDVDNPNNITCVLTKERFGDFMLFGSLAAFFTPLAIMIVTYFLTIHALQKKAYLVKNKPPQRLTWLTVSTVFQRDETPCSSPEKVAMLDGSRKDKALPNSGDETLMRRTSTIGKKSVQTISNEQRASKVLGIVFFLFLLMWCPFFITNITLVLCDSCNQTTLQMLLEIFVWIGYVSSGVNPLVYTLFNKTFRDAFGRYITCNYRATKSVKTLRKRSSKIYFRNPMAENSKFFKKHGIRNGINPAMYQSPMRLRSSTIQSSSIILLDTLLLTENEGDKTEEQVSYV
Description: Displacement of [125I]DOI from cloned human 5HT2B receptor expressed in CHO cells

[15] = target: T5, Alpha-2A adrenergic receptor (Homo sapiens, UniProt P08913); assay: Activity at adrenergic alpha-2A receptor expressed in human clonic adenocarcinoma HT29 cell by adenylyl cyclase assay; format: functional, cell-based, HT-29
T5 sequence (P08913 whole entry): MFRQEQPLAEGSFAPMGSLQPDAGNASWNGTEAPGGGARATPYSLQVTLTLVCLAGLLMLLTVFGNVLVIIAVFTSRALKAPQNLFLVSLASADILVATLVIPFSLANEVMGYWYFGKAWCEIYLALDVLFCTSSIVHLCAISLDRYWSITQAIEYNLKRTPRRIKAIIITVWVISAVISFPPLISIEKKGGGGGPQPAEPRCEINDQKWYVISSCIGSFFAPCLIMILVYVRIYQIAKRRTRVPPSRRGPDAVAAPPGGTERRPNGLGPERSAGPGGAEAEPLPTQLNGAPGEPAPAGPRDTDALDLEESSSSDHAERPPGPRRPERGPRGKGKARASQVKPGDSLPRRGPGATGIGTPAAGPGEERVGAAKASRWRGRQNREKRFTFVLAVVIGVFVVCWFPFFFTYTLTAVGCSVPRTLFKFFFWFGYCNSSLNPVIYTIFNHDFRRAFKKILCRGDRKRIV

[16] = target: Alpha-2B adrenergic receptor (Homo sapiens, UniProt P18089); assay: Activity at adrenergic alpha-2B receptor expressed in opposum kidney OK cell by adenylyl cyclase assay; format: functional, cell-based
Alpha-2B adrenergic receptor, sequence (P18089 whole entry): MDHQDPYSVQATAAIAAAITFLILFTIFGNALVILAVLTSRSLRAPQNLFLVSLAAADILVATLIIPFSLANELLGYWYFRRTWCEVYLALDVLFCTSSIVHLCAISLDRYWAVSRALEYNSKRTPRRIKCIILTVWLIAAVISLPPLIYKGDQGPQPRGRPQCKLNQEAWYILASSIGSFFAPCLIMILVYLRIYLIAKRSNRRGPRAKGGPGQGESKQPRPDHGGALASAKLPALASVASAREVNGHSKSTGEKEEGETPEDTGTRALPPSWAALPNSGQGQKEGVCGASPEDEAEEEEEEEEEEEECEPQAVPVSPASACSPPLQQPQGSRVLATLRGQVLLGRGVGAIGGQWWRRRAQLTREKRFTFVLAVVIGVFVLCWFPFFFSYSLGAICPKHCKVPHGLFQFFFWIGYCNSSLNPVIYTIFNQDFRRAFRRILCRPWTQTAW

[17] = target: T6, 5-hydroxytryptamine receptor 1A (Homo sapiens, UniProt P08908); assay: Agonistic activity at cloned human 5HT1A receptor expressed in CHO cells by inhibition of forskolin-induced cAMP production; format: functional, cell-based
T6 sequence (P08908 whole entry): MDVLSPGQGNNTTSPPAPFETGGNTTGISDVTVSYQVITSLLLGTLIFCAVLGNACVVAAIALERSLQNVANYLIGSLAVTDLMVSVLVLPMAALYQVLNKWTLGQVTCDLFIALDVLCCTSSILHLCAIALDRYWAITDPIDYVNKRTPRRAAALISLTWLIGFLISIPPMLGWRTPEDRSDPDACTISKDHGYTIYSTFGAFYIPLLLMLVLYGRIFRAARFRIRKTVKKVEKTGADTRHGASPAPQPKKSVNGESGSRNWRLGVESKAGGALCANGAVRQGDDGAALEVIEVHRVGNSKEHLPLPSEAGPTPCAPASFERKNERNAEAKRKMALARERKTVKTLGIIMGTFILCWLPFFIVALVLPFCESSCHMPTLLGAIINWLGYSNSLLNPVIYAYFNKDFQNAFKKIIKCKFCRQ

[18] = target: T5, Alpha-2A adrenergic receptor; assay: Activity at adrenergic alpha2A receptor expressed in human clonic adenocarcinoma HT29 cell by […]; format: functional, cell-based, HT-29
[19] = target: 5-hydroxytryptamine receptor 7 (Homo sapiens, UniProt P34969); assay: Activity at 5HT7 receptor expressed in human corneal epithelial CEPI-17-CL4 cells by adenylyl cyclase assay; format: functional, cell-based, Cornea
5-hydroxytryptamine receptor 7, sequence (P34969 whole entry): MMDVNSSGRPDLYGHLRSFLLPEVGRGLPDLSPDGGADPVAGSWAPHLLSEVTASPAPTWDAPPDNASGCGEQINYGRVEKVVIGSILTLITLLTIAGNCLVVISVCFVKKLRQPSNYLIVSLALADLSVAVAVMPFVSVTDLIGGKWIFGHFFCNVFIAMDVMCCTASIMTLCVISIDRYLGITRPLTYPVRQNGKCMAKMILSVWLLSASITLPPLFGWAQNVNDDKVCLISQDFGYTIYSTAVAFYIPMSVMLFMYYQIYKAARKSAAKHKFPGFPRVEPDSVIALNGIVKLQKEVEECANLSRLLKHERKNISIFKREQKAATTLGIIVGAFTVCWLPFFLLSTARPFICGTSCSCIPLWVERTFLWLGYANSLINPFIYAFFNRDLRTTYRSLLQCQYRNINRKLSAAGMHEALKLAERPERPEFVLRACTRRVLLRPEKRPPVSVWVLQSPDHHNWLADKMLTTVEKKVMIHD

[20] = target: T7, Alpha-2C adrenergic receptor (Homo sapiens, UniProt P18825); assay: Activity at adrenergic Alpha-2C receptor expressed in rat-mouse hybrid […] cell by adenylyl cyclase assay; format: functional, cell-based
T7 sequence (P18825 whole entry): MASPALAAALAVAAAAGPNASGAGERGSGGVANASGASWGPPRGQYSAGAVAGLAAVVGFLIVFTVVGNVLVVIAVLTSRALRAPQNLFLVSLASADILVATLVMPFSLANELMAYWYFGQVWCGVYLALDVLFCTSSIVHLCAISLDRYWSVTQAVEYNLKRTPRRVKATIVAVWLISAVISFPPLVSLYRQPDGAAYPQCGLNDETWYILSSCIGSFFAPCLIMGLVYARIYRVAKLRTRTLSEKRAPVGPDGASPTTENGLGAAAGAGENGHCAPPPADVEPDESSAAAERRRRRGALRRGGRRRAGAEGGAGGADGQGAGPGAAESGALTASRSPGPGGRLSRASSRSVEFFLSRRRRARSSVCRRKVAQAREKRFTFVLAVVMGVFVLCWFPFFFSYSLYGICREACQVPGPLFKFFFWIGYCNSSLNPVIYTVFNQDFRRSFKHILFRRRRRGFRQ

[21] = test system: MDR1 (P-gp); assay: in vitro; conditions: human, MDCK-MDR1
Description: Ratio of permeability from basolateral to apical over apical to basolateral side of the MDCK cell transfected with human MDR1

Compound `COc1ccc2[nH]cc(CC(C)N)c2c1` (configuration not stated) has an Emax [1] of 103%, an EC50 [2] of 47.5 nM and an Emax [3] of 96%. For the same compound, the IC50 [4] was 2 nM, the EC50 [5] was 2.7 nM and the EC50 [6] was 3.1 nM.
Work on `NCCc1c[nH]c2ccc(O)cc12` [SEROTONIN] yielded a T1/2 [7] of 0.03 yr, an Emax [1] of 94% and an Emax [3] of 99%.
In the case of `COc1ccc2[nH]cc(CCN(C)C)c2c1` [MEBUFOTENIN], the Papp B→A [8] is reported as 14.4 ×10⁻⁶ cm/s, the Emax [1] is reported as 89% and the EC50 [2] is reported as 462 nM. For the same compound, the Emax [3] was 70%, the IC50 [4] was 9.53 nM and the Papp A→B [9] was 16.1 ×10⁻⁶ cm/s. The logD [10] was 3.3.
For `NCCn1ncc2ccc(O)cc21`, the Papp B→A [8] was 0.6 ×10⁻⁶ cm/s, the Ki [11] was 20 nM and the Ki [12] was 9.6 nM. For the same compound, the Emax [1] was 104%, the EC50 [2] was 74.4 nM and the Emax [3] was 75%. For the same compound, the IC50 [4] was 0.77 nM, the EC50 [5] was 8.6 nM and the Papp A→B [9] was 0.64 ×10⁻⁶ cm/s. The logD [10] was 0.254, the EC50 [6] was 4.5 nM and the T1/2 [13] was 3.7 yr. The Ki [14] was 15 nM.
`COc1ccc2cnn(C[C@H](C)N)c2c1` gave a Papp B→A [8] of 19.5 ×10⁻⁶ cm/s, a Ki [11] of 16 nM and a Ki [12] of 1.5 nM. For the same compound, the Emax [1] was 103%, the EC50 [2] was 54 nM and the Emax [3] was 90%. For the same compound, the IC50 [4] was 1.91 nM, the EC50 [5] was 4.2 nM and the Papp A→B [9] was 14.1 ×10⁻⁶ cm/s. The logD [10] was 2.08, the EC50 [6] was 6.7 nM and the Ki [14] was 7.5 nM.
For `C[C@@H](N)Cn1ncc2ccc(O)cc21`, the Ki [11] was 105 nM, the Ki [12] was 34 nM and the EC50 [15] was greater than 10000 nM. It also gave an EC50 [16] of 4710 nM, an Emax [1] of 97% and an EC50 [2] of 236 nM. The Emax [3] was 61%, the IC50 [4] was 2.08 nM and the EC50 [5] was 85 nM. It also gave an EC50 [17] of 2890 nM, an EC50 [18] of 1990 nM and an EC50 [6] of 87.3 nM. The EC50 [19] was greater than 10000 nM, the Ki [14] was 35 nM and the EC50 [20] was 5660 nM.
Work on `CC(N)Cc1c[nH]c2ccc(O)cc12` (configuration not stated) yielded a T1/2 [7] of 0.071 yr, an Emax [1] of 100% and an Emax [3] of 96%.
Compound `Cc1c(O)ccc2cnn(C[C@H](C)N)c12` has a Papp B→A [8] of 3.12 ×10⁻⁶ cm/s, a Ki [11] of 1.8 nM and a Ki [12] of 3.6 nM. The Emax [1] was 91%, the EC50 [2] was 81.3 nM and the Emax [3] was 89%. It also gave an IC50 [4] of 0.74 nM, an EC50 [5] of 8.9 nM and a Papp A→B [9] of 2.49 ×10⁻⁶ cm/s. It also gave a logD [10] of 1.28, an EC50 [6] of 7.3 nM and a T1/2 [13] of 0.73 yr. The Ki [14] was 8.7 nM.
`COc1cc(C[C@@H](C)N)c(OC)cc1I` showed a Papp B→A [8] of 23.2 ×10⁻⁶ cm/s, an EC50 [2] of 19.8 nM and an Emax [3] of 35%. The IC50 [4] was 0.21 nM, the EC50 [5] was 11.9 nM and the Papp A→B [9] was 12.6 ×10⁻⁶ cm/s. It also gave a logD [10] of 2.72 and an EC50 [6] of 30.2 nM.
`C[C@H](N)Cn1ncc2ccc(O)c(F)c21` gave a Papp B→A [8] of 1.66 ×10⁻⁶ cm/s, a Ki [11] of 5.8 nM and a Ki [12] of 1 nM. For the same compound, the Emax [1] was 100%, the EC50 [2] was 58.1 nM and the Emax [3] was 80%. The IC50 [4] was 0.73 nM, the EC50 [5] was 6.1 nM and the Papp A→B [9] was 1.11 ×10⁻⁶ cm/s. The logD [10] was 0.394, the EC50 [6] was 5.5 nM and the T1/2 [13] was 1.4 yr. It also gave a Ki [14] of 1.7 nM and an efflux ratio [21] of 1.5.
Work on `C[C@H](N)Cn1ncc2ccc(O)c(Cl)c21` yielded a Papp B→A [8] of 4.94 ×10⁻⁶ cm/s, a Ki [11] of 12 nM and a Ki [12] of 1.2 nM. It also gave an Emax [1] of 104%, an EC50 [2] of 59.7 nM and an Emax [3] of 87%. It also gave an IC50 [4] of 0.54 nM, an EC50 [5] of 5.9 nM and a Papp A→B [9] of 1.65 ×10⁻⁶ cm/s. It also gave a logD [10] of 1.09, an EC50 [6] of 4.9 nM and a T1/2 [13] of 4 yr. It also gave a Ki [14] of 3.8 nM and an efflux ratio [21] of 3.
With `C[C@H](N)Cn1ncc2ccc(O)c(I)c21` the Papp B→A [8] was 3.46 ×10⁻⁶ cm/s, the Ki [11] was 21 nM and the Ki [12] was 4.8 nM. It also gave an EC50 [2] of 204 nM, an Emax [3] of 73% and an IC50 [4] of 1.68 nM. For the same compound, the Papp A→B [9] was 1.22 ×10⁻⁶ cm/s, the logD [10] was 3 and the Ki [14] was 6 nM.
